Measurements published in patent publication US20120276049A1, “Methods and compositions for amelioration of autoimmune disease using fusion proteins of anti-dendritic cell receptor antibody to peptide sequences” (President and Fellows of Harvard College, priority 2009, published 2012).

Columns and labels:
[1] = target: DEC205 receptor (mouse), on splenic CD11c+ dendritic cells of SJL mice (mouse) (UniProt Q60767); experiment: cell-based or functional assay
[2] = test system: patients with secondary progressive MS; settings: weekly s.c. 3 or 10 mg; 50 patients; cited from earlier work
[3] = test system: Experimental Autoimmune Encephalomyelitis (EAE, the mouse model of MS); settings: compared with Copaxone; cited from earlier work
[4] = test system: PLP139-151-induced EAE in recipient SJL mice; experiment: Adoptive transfer of CD4+ T cells from preimmunized SJL mice, then EAE induction in recipients; type: in vivo, mouse; settings: donors coimmunized with 500 μg copolymer
Procedure: SJL mice were preimmunized on day 10 i.p. with each of 1 μg fusion monoclonal antibodies: DEC205-PLP-specific (closed diamonds; αDEC205/PLP mAb CD4^+ T cells) or control GL117-PLP-specific (closed squares; GL117/PLP mAb CD4^+ T cells), or control treatment with 500 μg of the synthetic amino acid copolymer (poly (F,Y,A,K)n; closed light gray circles; PLP139-151+FYAK CD4^+ T cells) or no treatment (closed triangles). The 5×10^6 CD4+ T cells, enriched splenocytes obtained from preimmunized mice, were adoptively transferred i.v. into the tail veins of non-treated mice, followed by immunization on day 1 with 75 μg of PLP139-151 in CFA and PT i.v. the following day. Controls received PBS injections. Mean disease scores of five mice/group are shown. […]
SJL mice herein were preimmunized at day 10 i.p. with 1 μg of DEC205-PLP specific monoclonal antibodies (closed diamonds; αDEC205/PLP mAb) only or not treated (closed triangles) in a control group. Mice were monitored for clinical signs of EAE for 30 days. […]
SJL/J mice were preimmunized (day 10, 15, or 20) with 1 μg i.p. of fusion monoclonal antibodies (DEC205-PLP specific monoclonal antibodies, DEC205-HA specific monoclonal antibodies, DEC205 specific monoclonal antibodies alone, or GL117-PLP specific monoclonal antibodies). […] The mice were scored daily for 30 days. […]

[5] = in vivo; cited from earlier work
[6] = test system: relapsing-remitting forms of MS; settings: cited from earlier work

Chain of UniProt Q60767 (Q60767 28-1723): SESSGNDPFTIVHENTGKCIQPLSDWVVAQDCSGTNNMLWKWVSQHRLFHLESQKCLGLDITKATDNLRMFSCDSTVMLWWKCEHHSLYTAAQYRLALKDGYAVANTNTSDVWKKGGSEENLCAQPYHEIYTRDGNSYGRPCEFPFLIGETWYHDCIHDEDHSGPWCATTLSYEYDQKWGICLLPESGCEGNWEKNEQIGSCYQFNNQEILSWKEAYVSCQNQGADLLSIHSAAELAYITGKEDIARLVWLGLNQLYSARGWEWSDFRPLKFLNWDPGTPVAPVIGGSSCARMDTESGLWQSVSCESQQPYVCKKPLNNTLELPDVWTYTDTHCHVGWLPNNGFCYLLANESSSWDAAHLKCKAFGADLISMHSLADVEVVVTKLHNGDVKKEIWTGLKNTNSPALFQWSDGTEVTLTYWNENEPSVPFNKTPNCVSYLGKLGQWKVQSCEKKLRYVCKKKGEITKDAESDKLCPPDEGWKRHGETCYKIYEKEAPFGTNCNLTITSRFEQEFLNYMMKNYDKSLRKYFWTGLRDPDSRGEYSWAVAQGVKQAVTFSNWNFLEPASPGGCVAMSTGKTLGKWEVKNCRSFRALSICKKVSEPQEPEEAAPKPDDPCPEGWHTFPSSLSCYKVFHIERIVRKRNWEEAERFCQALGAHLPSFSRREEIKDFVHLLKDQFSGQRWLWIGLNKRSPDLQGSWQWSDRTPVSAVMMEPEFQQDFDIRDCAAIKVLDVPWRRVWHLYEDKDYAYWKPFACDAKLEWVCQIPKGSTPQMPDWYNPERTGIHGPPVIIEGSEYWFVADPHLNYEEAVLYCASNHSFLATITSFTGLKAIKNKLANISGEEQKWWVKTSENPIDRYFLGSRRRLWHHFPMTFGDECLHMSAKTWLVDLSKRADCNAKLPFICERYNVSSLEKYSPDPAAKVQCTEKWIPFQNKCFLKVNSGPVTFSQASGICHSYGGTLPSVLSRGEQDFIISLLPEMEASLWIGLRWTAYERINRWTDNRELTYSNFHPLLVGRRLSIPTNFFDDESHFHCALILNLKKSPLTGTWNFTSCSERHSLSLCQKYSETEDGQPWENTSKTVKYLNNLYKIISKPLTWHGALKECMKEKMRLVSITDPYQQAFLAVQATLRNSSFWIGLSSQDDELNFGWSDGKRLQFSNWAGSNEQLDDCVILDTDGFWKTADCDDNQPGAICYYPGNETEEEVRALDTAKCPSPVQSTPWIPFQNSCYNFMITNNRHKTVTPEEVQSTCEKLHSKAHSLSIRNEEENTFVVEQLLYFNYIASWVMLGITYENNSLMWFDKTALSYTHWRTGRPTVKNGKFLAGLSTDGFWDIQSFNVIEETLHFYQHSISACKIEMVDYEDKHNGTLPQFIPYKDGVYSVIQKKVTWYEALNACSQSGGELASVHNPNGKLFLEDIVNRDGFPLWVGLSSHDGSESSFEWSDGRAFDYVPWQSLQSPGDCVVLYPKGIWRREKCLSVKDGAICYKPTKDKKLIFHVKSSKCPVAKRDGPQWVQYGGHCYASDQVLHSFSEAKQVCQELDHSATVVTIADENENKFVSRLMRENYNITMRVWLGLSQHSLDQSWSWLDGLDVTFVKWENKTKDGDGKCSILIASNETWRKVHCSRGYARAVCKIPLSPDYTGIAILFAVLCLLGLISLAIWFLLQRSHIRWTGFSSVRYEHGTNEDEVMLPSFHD

anti-DEC205-PLP139-151 fusion monoclonal antibody (cloned NLDC-145 with PLP139-151 fused to the C terminus of the Ig heavy chain)
IFN-γ secretion in day 3 coculture supernatants (cytokine bead array) [1]: 10 fold

poly (F,Y,A,K)n [FYAK]
number of Gadolinium-enhancing lesions [2]: severely reduce | effectiveness in treatment of EAE [3]: far more effective than Copaxone | EAE induction in recipients of CD4+ T cells [4]: efficiently prevented EAE induction

poly(Y, E, A, K)n [Copaxone ®]
side effects [5]: severe injection | reduction of relapse rate [6]: 30%
